From patent US8410140B2, “Anesthetic methods and compositions” (The Regents of the University of Michigan, priority 2009, dated 2013)

Tests used:
[1] = tested on: sciatic nerve block in rat; assay: Paw withdrawal latency (PWL) to a heat stimulus after perineural sciatic nerve block, dexmedetomidine dose response (Example 2); type: in vivo; conditions: operative paw, ropivacaine 0.5%, heat cut-off 15 seconds, n = 10
Description: Commercially available 0.75% ropivacaine solution was mixed with preservative free normal saline or dexmedetomidine to make final solutions. The control group received 0.5% ropivacaine alone. In the experimental groups, ropivacaine was mixed with dexmedetomidine to make solutions based on the individual rat's weight 24 hours prior to experimental testing. […] The pH of ropivacaine (5.69±0.05) was used as the standard to which all solutions were maintained.
Fifty male Sprague Dawley rats (caesarean-derived Sprague-Dawley) weighing 250-350 g were purchased from Charles River Laboratories (Wilmington, Mass.). Rats without any signs of neurobehavioral impairment were maintained for one week in 12:12 light-dark cycles with lights on from 6 a.m. to 6 p.m. For the three days prior to surgery and neurobehavioral monitoring, rats were conditioned to the paw withdrawal chambers for one hour per day. Each rat was placed in the same position of the six-chamber container during the conditioning and neurobehavioral testing. On each of the three days prior to testing, both paws of the rat were exposed to the heat stimulus as a portion of the conditioning process. The day before surgery and testing, five PWL baseline measurements were obtained on both the operative and control paws. The mean value of the five measures was recorded as the rat's baseline value.
The IITC Life Sciences Inc. Plantar Analgesia Meter (Series 8 Model 336T, IITC Life Science Inc., Woodland Hills, Calif.) was used to test paw withdrawal latency (PWL) (Hargreaves et al. (1988) Pain 32:77-88; herein incorporated by reference in its entirety). The analgesia meter used a test unit containing a heat source that radiated a light beam. An angled mirror on the test unit was used to locate the correct target on the paw. The meter was set with an active intensity of 40%, an idle intensity of 10%, and a cut-off time for the heat source of 15 seconds. The time to paw withdrawal from the heat stimulus comprised the PWL measure (reaction time was measured to 0.01 s). An acrylic six-chamber container was used to separate the rats that were placed on the glass (Model 400) heated base. In order to decrease the level of variance in PWL measurements, the temperature of the base was set to 30 degrees Celsius five minutes prior to and throughout each round of PWL testing (Ding et al. (1997) Neurosci. Methods 76:183-191; herein incorporated by reference in its entirety).
An investigator blinded to the drug condition carried out the sciatic nerve injections. Each rat was randomly assigned to one of the five drug conditions. The laboratory assistants responsible for drug preparation were blinded to the surgery, neurobehavioral monitoring, and PWL measures. Rats were anesthetized and maintained with 2.5% isoflurane. […] Following the dissection, the sciatic nerve was clearly identified at a point proximal its bifurcation. All rats received unilateral injections of 0.2 ml of drug into the perineural space below the clear fascia covering the nerve and proximal to the bifurcation of the sciatic nerve. Injections were made using a tuberculin syringe and a 30-gauge needle. The time of the injection was recorded and deemed the zero time point. A non-absorbable muscle fascia suture was placed at the midpoint of the injection site as a marker for subsequent nerve removal.

[2] = tested on: sciatic nerve block in rat; assay: PWL and inter-paw differential (IPD), perineural versus subcutaneous dexmedetomidine in sciatic nerve block (Example 3); type: in vivo
Description: The relative systemic versus peripheral perineural effects of dexmedetomidine were determined by observing the PWL for the blocked and unblocked (control) paw. The effect of sensory analgesia (as measured by the PWL) to the operative paw compared with the control paw was calculated and is reported as the inter-paw differential (IPD=100*[Operative PWL−Control PWL]/Control PWL).
Data are presented as mean±SEM.

[3] = tested on: sciatic nerve block in rat; conditions: high-dose dexmedetomidine alone or combined with approved concentrations of bupivacaine; cited from earlier work
[4] = drug(s) injected perineurally, saline subcutaneously, ropivacaine 0.5%, DEX 20.0 μg/kg, p<0.05

Structure (SMILES)	Mean PWL values, 90 min ([1]; 90 min after 0.2 ml perineural sciatic injection)	Mean PWL values, 120 min ([1]; 120 min after 0.2 ml perineural sciatic injection)	Mean PWL values, 150 min ([1]; 150 min after 0.2 ml perineural sciatic injection)	Mean PWL values, 180 min ([1]; 180 min after 0.2 ml perineural sciatic injection)	Mean PWL values, 210 min ([1]; 210 min after 0.2 ml perineural sciatic injection)	PWL scores of the operative paws, 30-90 min time points ([2]; dense blockade, cutoff threshold 15 s, ropivacaine 0.5%, DEX 20.0 μg/kg)	time points with significant differences between the operative and control paws (PWL) [2, 4]	sensory blockade of the operative paw ([2]; DEX 20.0 μg/kg alone, perineural)	inter-paw differential (IPD), relative effect ([2]; DEX 20.0 μg/kg alone, perineural, significantly different at 30 and 60 minutes (p=0.006 and 0.002))	time points with significant differences between the operative and control paws (PWL) ([2]; DEX 20.0 μg/kg injected subcutaneously, perineural 0.5% ropivacaine or saline)	neurotoxicity [3]
CCCN1CCCC[C@H]1C(=O)Nc1c(C)cccc1C [Ropivacaine, ropivacaine]	13.25 s	6.13 s	4.74 s	5.35 s	5.05 s	~15 s	30 to 90 min	–	–	–	–
Cc1cccc([C@H](C)c2cnc[nH]2)c1C [dexmedetomidine, Dexmedetomidine]	–	–	–	–	–	–	60 min	brief, partial sensory blockade	greater than subcutaneous dexmedetomidine alone	affected both paws equally	no neurotoxicity
